# “Also recorded” adds a separate entry of the source.
# Assays:
# [1] = tested on: high-alcohol preferring (HAP) mouse; assay: binge operant responding experiment in high-alcohol preferring (HAP) mice; assay type: in vivo; conditions: intraperitoneal 25, 50 or 75 mg/kg, FIG. 2
# Experimental: The efficacy of (+)-1-(3,4-dichlorophenyl)-3-azabicyclo[3.1.0]hexane to reduce alcohol-drinking behavior was evaluated in the genetically selected high-alcohol preferring (HAP) mouse, an animal model for human alcohol abuse. The effects of (+)-1-(3,4-dichlorophenyl)-3-azabicyclo[3.1.0]hexane on HAP mice were examined in a binge operant responding experiment, using standard protocols.
# HAP mice were obtained from the Alcohol Research Center at Indiana University School of Medicine. Animals were housed individually at an ambient temperature of 21° C., with a normal 12 hour light/dark cycle. […]
# Behavioral testing was conducted in standard operant chambers (Coulbourn Instruments, Allentown, Pa.) equipped with two removable levers and two dipper fluid delivery systems enclosed in sound-attenuated cubicles as previously described (Cook et al., 2004). […] Responses and reinforcements were recorded and controlled using the 4.0 Coulbourn L2T2 operant software package. […]
# For the alcohol and sucrose maintained responding studies, (+)-1-(3,4-dichlorophenyl)-3-azabicyclo[3.1.0]hexane [25, 50, or 75 mg/kg] was injected into each HAP mouse, followed by immediate placement in an operant chamber. […] Six HAP mice were evaluated with each concentration of (+)-1-(3,4-dichlorophenyl)-3-azabicyclo[3.1.0]hexane [25, 50, or 75 mg/kg].
# [2] = tested on: alcohol-preferring (P) rat; assay: binge operant responding experiment in alcohol-preferring (P) rats; assay type: in vivo
# Experimental: P rats were obtained from the Alcohol Research Center at Indiana University School of Medicine. Male P rats were used in all experiments, and were approximately 4-5 months of age and weighed between 420 and 580 g at the outset. Animals were housed individually at an ambient temperature of 21° C., with a normal 12 hour light/dark cycle. All rats were provided ad libitum access to food and water, except during training for operant self-administration studies, during which rats were fluid deprived 23 hr daily during the first 5 days of the training phase. Thereafter, these animals were maintained on ad libitum food and water. All training and experimental sessions for all subjects took place between 9 a.m. and 5 p.m. […] Deionized water was administered as the control injection. Behavioral testing was conducted in standard operant chambers (Coulbourn Instruments, Allentown, Pa.) equipped with two removable levers and two dipper fluid delivery systems enclosed in sound-attenuated cubicles as previously described (Cook et al., 2004). All dipper presentations provided a 1.5-sec access to a 0.1-ml dipper, followed by a 3-sec time out period. […] Responses and reinforcements were recorded and controlled using the 4.0 Coulbourn […] operant software package. […]
# [3] = tested on: kidney tubules; conditions: cynomolgus monkeys; Guha et al., 2011; cited from earlier work
# [4] = Phase II, compared to placebo; Sepracor Press Release 2009; cited from earlier work
# [5] = target: T1, serotonin transporter (Homo sapiens, UniProt P31645); conditions: PET occupancy study at the doses examined; DeLorenzo et al., 2011; cited from earlier work
# T1 construct: host or cells: in vivo brain (PET)
# T1 sequence (P31645 whole entry): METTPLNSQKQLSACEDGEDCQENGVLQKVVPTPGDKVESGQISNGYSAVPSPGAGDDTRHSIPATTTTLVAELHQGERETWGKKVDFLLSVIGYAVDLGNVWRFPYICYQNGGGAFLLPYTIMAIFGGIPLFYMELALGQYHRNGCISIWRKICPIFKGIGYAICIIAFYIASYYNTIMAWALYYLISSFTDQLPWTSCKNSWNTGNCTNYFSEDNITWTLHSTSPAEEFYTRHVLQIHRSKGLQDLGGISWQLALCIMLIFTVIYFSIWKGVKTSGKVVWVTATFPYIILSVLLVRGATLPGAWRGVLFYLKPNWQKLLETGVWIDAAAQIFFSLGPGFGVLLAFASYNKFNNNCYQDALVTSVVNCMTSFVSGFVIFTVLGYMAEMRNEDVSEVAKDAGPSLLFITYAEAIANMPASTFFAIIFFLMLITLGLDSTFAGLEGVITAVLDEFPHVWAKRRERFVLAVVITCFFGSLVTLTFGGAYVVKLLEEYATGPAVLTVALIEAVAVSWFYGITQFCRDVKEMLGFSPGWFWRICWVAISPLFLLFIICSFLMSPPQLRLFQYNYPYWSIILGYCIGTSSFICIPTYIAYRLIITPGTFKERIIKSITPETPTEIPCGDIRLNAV
# [6] = trial for use in weight loss; Astrup et al., 2008; cited from earlier work
# [7] = tested on: Parkinson's Disease; conditions: Phase II clinical trial; Rascol et al., 2008; cited from earlier work
# [8] = patients with a preexisting cardiovascular condition, FDA News Release 2010, James et al.; cited from earlier work
smiles,measurement,setting,value
"Clc1ccc([C@]23CNC[C@H]2C3)cc1Cl [(+)-1-(3,4-dichlorophenyl)-3-azabicyclo[3.1.0]hexane]",effect on sucrose consumption (control sucrose responding),[1]; HAP mice maintained on sucrose water,lack of effect
same,effect on alcohol consumption (ethanol responding),"[1]; HAP mice, 90 min operant session, EtOH 10% v/v, FR4",demonstrates a dose response; also recorded: dose-dependent decrease in alcohol consumption
same,effect on sucrose consumption (sucrose maintained responding),"[2]; P rats maintained on sucrose water, oral 3.1-50 mg/kg, 90 min operant session, FIG. 1B",lack of effect
same,effect on ethanol consumption (alcohol maintained responding),"[2]; P rats, oral 3.1, 6.3, 12.5, 25 or 50 mg/kg 25 min before 90 min operant session, EtOH 10% v/v, FR4, FIG. 1A",demonstrates a dose response; also recorded: decrease in alcohol consumption that was dose-dependent
CNC[C@H](c1ccc2ccccc2c1)[C@H](O)c1ccccc1 [PRC200-SS],nephrotoxicity,[3],acute degenerative damage of kidney tubules
N[C@@H]1CC[C@@H](c2ccc(Cl)c(Cl)c2)c2ccccc21 [SEP-225289],primary efficacy endpoint as antidepressant,[4],did not meet the primary efficacy endpoint compared to placebo
same,serotonin transporter occupancy,[5],too low at the doses examined to produce an antidepressant effect
CCOC[C@@H]1[C@@H](c2ccc(Cl)c(Cl)c2)C[C@@H]2CC[C@H]1N2C [Tensofensine],adverse events,[6],"gastrointestinal adverse events (dry mouth, nausea, abdominal pain, constipation, diarrhea)"
same,efficacy in treatment of Parkinson's Disease,[7],not be efficacious
CC(C)CC(N(C)C)C1(c2ccc(Cl)cc2)CCC1 (stereo not shown) [sibutramine],"risk of serious heart events (non-fatal heart attack, non-fatal stroke)",[8],significant increase in the risk of serious heart events

# — patent US20170216251A1, “USE OF (+)-1-(3,4-DICHLOROPHENYL)-3-AZABICYCLO[3.1.0]HEXANE TO TREAT ADDICTIVE AND ALCOHOL-RELATED DISORDERS” (priority 2011, published 2017)
